Assay results taken from patent US10501421B1, “Substituted benzimidazoles as modulators of Ras signaling” (VANDERBILT UNIVERSITY, priority 2017, dated 2019).

Assays:
[1] = molecular target: Ras GEF SOS (Son of Sevenless) (Homo sapiens, UniProt Q07889); assay: SOS-mediated nucleotide exchange on Ras (BODIPY-GDP fluorescence); format: biochemical; conditions: SOS-mediated exchange of BODIPY-GDP for GTP on Ras
Method in brief: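 Exchange rates were taken from single-exponential fits of the fluorescence time course as BODIPY-GDP on Ras was replaced by GTP. Compound went in first, then GTP and SOS. Mean rates plotted against concentration gave EC50 by four-parameter dose-response fitting.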

Son of Sevenless (SOS) = molecular target: T1, Son of Sevenless (SOS) (Homo sapiens, UniProt Q07889); assay: Binding to SOS, fluorescence polarization anisotropy (FPA) probe displacement; conditions: displacement of FITC-conjugated probe (Example 285), affinity calculated from IC50
T1 sequence (Q07889 564-1049 limits assumed): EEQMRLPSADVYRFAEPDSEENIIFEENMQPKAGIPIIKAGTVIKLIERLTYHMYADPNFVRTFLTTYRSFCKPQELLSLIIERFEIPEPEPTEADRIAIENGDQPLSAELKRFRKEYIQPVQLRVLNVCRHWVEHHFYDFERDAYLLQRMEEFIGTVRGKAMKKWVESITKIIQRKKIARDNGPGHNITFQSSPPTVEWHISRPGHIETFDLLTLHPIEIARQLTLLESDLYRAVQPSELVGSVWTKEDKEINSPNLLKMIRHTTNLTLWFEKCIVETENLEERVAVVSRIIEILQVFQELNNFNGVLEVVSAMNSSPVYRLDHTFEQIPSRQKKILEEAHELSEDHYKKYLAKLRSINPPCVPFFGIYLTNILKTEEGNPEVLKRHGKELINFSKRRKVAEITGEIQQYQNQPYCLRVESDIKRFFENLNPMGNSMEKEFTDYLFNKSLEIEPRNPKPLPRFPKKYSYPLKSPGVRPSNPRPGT
Method in brief: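 Test compounds were titrated against SOS pre-bound to a fluorescein-labelled probe, with anisotropy plotted versus compound concentration. Binding affinities were derived from IC50 values obtained by four-parameter dose-response fitting.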

Ras GEF SOS (Son of Sevenless), sequence (P01112 1-166 partner limits assumed, one chain of several): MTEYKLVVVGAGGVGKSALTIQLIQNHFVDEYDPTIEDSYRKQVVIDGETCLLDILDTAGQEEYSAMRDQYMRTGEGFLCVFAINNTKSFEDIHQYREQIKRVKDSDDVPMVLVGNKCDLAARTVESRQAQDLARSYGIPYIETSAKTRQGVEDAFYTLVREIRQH

| Compound | EC50 [1] [µM] | Ki (Son of Sevenless (SOS)) [µM] |
| --- | --- | --- |
| Cc1cc2c(nc(N3CCNCC3)n2Cc2ccc(F)c(C)c2)c(-c2ccc(CN)cc2)n1 [Example 229, (4-(1-(4-fluoro-3-methylbenzyl)-6-methyl-2-(piperazin-1-yl)-1H-imidazo[4,5-c]pyridin-4-yl)phenyl)methanamine] | 1 to 5 | > 5 |
| COc1ccc(-c2nc(C)cc3c2nc(N2CCNCC2)n3Cc2ccc(F)c(C)c2)cc1OC [Example 230, 4-(3,4-dimethoxyphenyl)-1-(4-fluoro-3-methylbenzyl)-6-methyl-2-(piperazin-1-yl)-1H-imidazo[4,5-c]pyridine] | 5 to 30 | > 5 |
| Cc1cc2c(nc(N3CCNCC3)n2Cc2ccc(F)c(C)c2)c(CNCC(C)C)n1 [Example 231, N-((1-(4-fluoro-3-methylbenzyl)-6-methyl-2-(piperazin-1-yl)-1H-imidazo[4,5-c]pyridin-4-yl)methyl)-2-methylpropan-1-amine] | 5 to 30 | > 5 |
| Cc1cc2c(nc(N3CCNCC3)n2Cc2ccc(F)c(C)c2)c(CNC2CCCC2)n1 [Example 232, N-((1-(4-fluoro-3-methylbenzyl)-6-methyl-2-(piperazin-1-yl)-1H-imidazo[4,5-c]pyridin-4-yl)methyl)cyclopentanamine] | 5 to 30 | > 5 |
| Cc1cc2c(nc(N3CCNCC3)n2Cc2ccc(F)c(C)c2)c(CNC(C)C)n1 [Example 233, N-((1-(4-fluoro-3-methylbenzyl)-6-methyl-2-(piperazin-1-yl)-1H-imidazo[4,5-c]pyridin-4-yl)methyl)propan-2-amine] | 5 to 30 | > 5 |
| Cc1cc2c(nc(N3CCNCC3)n2Cc2ccc(F)c(C)c2)c(CNCCC(C)C)n1 [Example 234, N-((1-(4-fluoro-3-methylbenzyl)-6-methyl-2-(piperazin-1-yl)-1H-imidazo[4,5-c]pyridin-4-yl)methyl)-3-methylbutan-1-amine] | 5 to 30 | > 5 |
| Cc1cc2c(nc(N3CCNCC3)n2Cc2ccc(F)c(C)c2)c(CN2CCCCC2)n1 [Example 235, 1-(4-fluoro-3-methylbenzyl)-6-methyl-2-(piperazin-1-yl)-4-(piperidin-1-ylmethyl)-1H-imidazo[4,5-c]pyridine] | 30 to 100 | > 5 |
| Cc1cnc2nc(NCCN)n(Cc3ccc(F)c(C)c3)c2c1 [Example 245, N^1-(1-(4-fluoro-3-methylbenzyl)-6-methyl-1H-imidazo[4,5-b]pyridin-2-yl)ethane-1,2-diamine] | 1 to 5 | > 5 |
| Cc1cnc2nc(NCCN)n(Cc3ccc(F)c(Cl)c3)c2c1 [Example 246, N^1-(1-(3-chloro-4-fluorobenzyl)-6-methyl-1H-imidazo[4,5-b]pyridin-2-yl)ethane-1,2-diamine] | 1 to 5 | 1 to 5 |
| Cc1cnc2nc(NC3CCNC3)n(Cc3ccc(F)c(Cl)c3)c2c1 (stereo not drawn) [Example 247, 1-(3-chloro-4-fluorobenzyl)-6-methyl-N-(pyrrolidin-3-yl)-1H-imidazo[4,5-b]pyridin-2-amine] | 1 to 5 | 1 to 5 |
| Clc1ccc(Cn2c(N3CCNCC3)nc3ncccc32)cc1 [Example 251, 1-(4-chlorobenzyl)-2-(piperazin-1-yl)-1H-imidazo[4,5-b]pyridine] | 30 to 100 | > 5 |
| Cc1cc2c(nc(N3CCNCC3)n2Cc2ccc(F)c(Cl)c2)c(-c2cccnc2)c1C [Example 265, 1-[(3-chloro-4-fluorophenyl)methyl]-5,6-dimethyl-2-piperazin-1-yl-4-pyridin-3-ylbenzimidazole] | 1 to 5 | 1 to 5 |
| Fc1ccc(Cn2c(N3CCNCC3)nc3c(-c4cccnc4OCc4ccccc4)cccc32)cc1Cl [Example 266, 1-[(3-chloro-4-fluorophenyl)methyl]-4-(2-phenylmethoxypyridin-3-yl)-2-piperazin-1-ylbenzimidazole] | 5 to 30 | > 5 |
| Cc1ccc2nc([C@@H]3CCC(=O)N3)n(Cc3ccc(F)c(Cl)c3)c2c1 [Example 274, (5S)-5-[1-[(3-chloro-4-fluorophenyl)methyl]-6-methylbenzimidazol-2-yl]pyrrolidin-2-one] | 1 to 5 | > 5 |
| Cc1cc2nc(N3CCNCC3)n(Cc3cc(Cl)c(F)c(Cl)c3)c2cc1C [Example 277, 1-[(3,5-dichloro-4-fluorophenyl)methyl]-5,6-dimethyl-2-piperazin-1-ylbenzimidazole] | 1 to 5 | > 5 |
| OCc1cc(Cl)cc2c1nc(N1CCNCC1)n2Cc1ccc(F)c(Cl)c1 [Example 278, [6-chloro-1-[(3-chloro-4-fluorophenyl)methyl]-2-piperazin-1-ylbenzimidazol-4-yl]methanol] | < 1 | 1 to 5 |
| Cc1cc(Cn2c(N3CCNCC3)nc3c(-n4ccc(N)c4)cc(Cl)cc32)cc(C)c1F [Example 279, 1-[6-chloro-1-[(4-fluoro-3,5-dimethylphenyl)methyl]-2-piperazin-1-ylbenzimidazol-4-yl]pyrrol-3-amine] | 1 to 5 | < 0.5 |
| Cc1cc(CO)c2nc(N3CCNCC3)n(Cc3cc(C)c(F)c(C)c3)c2c1 [Example 280, [1-[(4-fluoro-3,5-dimethylphenyl)methyl]-6-methyl-2-piperazin-1-ylbenzimidazol-4-yl]methanol] | < 1 | 1 to 5 |
| Cc1cc(Cn2c(N3CCNCC3)nc3c(C(N)C(=O)O)cc(Cl)cc32)cc(C)c1F (stereo not drawn) [Example 282, 2-amino-2-[6-chloro-1-[(4-fluoro-3,5-dimethylphenyl)methyl]-2-piperazin-1-ylbenzimidazol-4-yl]acetic acid] | 1 to 5 | 0.5 to 1 |
| NC(CO)c1cc(Cl)cc2c1nc(N1CCNCC1)n2Cc1ccc(F)c(Cl)c1 (stereo not drawn) [Example 283, 2-amino-2-[6-chloro-1-[(3-chloro-4-fluorophenyl)methyl]-2-piperazin-1-ylbenzimidazol-4-yl]ethanol] | 5 to 30 | > 5 |
| Cc1cc2nc(N3CC(CN)C3)n(Cc3ccc(F)c(Cl)c3)c2cc1C [Example 288, (1-(1-(3-chloro-4-fluorobenzyl)-5,6-dimethyl-1H-benzo[d]imidazol-2-yl)azetidin-3-yl)methanamine] | < 1 | 1 to 5 |
| Cc1cc2nc(N3CCCC(N)C3)n(Cc3ccc(F)c(Cl)c3)c2cc1C (stereo not drawn) [Example 290, 1-(1-(3-chloro-4-fluorobenzyl)-5,6-dimethyl-1H-benzo[d]imidazol-2-yl)piperidin-3-amine] | 1 to 5 | 1 to 5 |
| Cc1cc2nc(NCC3CNC3)n(Cc3ccc(F)c(Cl)c3)c2cc1C [Example 291, N-(azetidin-3-ylmethyl)-1-(3-chloro-4-fluorobenzyl)-5,6-dimethyl-1H-benzo[d]imidazol-2-amine] | < 1 | 1 to 5 |
| Cc1cc2nc(N[C@H]3C[C@@H](N)C3)n(Cc3ccc(F)c(Cl)c3)c2cc1C [Example 292, (1s,3s)-N^1-(1-(3-chloro-4-fluorobenzyl)-5,6-dimethyl-1H-benzo[d]imidazol-2-yl)cyclobutane-1,3-diamine] | 1 to 5 | 1 to 5 |
| Cc1cc2nc(NC3CCNC3)n(Cc3ccc(F)c(Cl)c3)c2cc1C (stereo not drawn) [Example 293, 1-(3-chloro-4-fluorobenzyl)-5,6-dimethyl-N-(pyrrolidin-3-yl)-1H-benzo[d]imidazol-2-amine] | 1 to 5 | 1 to 5 |
| Cc1cc2nc(N3CCC(N)CC3)n(Cc3ccc(F)c(Cl)c3)c2cc1C [Example 294, 1-(1-(3-chloro-4-fluorobenzyl)-5,6-dimethyl-1-benzo[d]imidazol-2-yl)piperidin-4-amine] | 5 to 30 | > 5 |
| Cc1cc(Cn2c(N3CCNCC3)nc3c(N(C)C)cc(Cl)cc32)cc(C)c1F [Example 296, 6-chloro-1-(4-fluoro-3,5-dimethylbenzyl)-N,N-dimethyl-2-(piperazin-1-yl)-1H-benzo[d]imidazol-4-amine] | 1 to 5 | < 0.5 |
| Cc1cc(Cn2c(N3CCNCC3)nc3c(N4CCCCC4)cc(Cl)cc32)cc(C)c1F [Example 297, 6-chloro-1-(4-fluoro-3,5-dimethylbenzyl)-2-(piperazin-1-yl)-4-(piperidin-1-yl)-1H-benzo[d]imidazole] | 1 to 5 | < 0.5 |
| Cc1cc(Cn2c(NCCN)nc3c(N4CCC(N)CC4)cc(Cl)cc32)cc(C)c1F [Example 298, N^1-(4-(4-aminopiperidin-1-yl)-6-chloro-1-(4-fluoro-3,5-dimethylbenzyl)-1H-benzo[d]imidazol-2-yl)ethane-1,2-diamine] | < 1 | < 0.5 |
| Cc1cc(Cn2c(NCCN)nc3c(N4CCNCC4)cc(Cl)cc32)cc(C)c1F [Example 299, N^1-(6-chloro-1-(4-fluoro-3,5-dimethylbenzyl)-4-(piperazin-1-yl)-1H-benzo[d]imidazol-2-yl)ethane-1,2-diamine] | < 1 | < 0.5 |
